Legend:
[1] = test system: primary human smooth muscle (HASM) cells; assay: FLECS bronchodilator assay: single-cell contractility of HASM cells after bradykinin/carbachol-induced contraction; type: cell-based; conditions: for relaxation of stimulated cells: HASM from asthmatic and non-asthmatic humans, stimulated to contract with bradykinin; for effect on contraction relative to control (FIG. 2): test agent 100 μM alone, stimulating agents BK and carbachol (10 μM), negative control 0.1% DMSO
From the text: FIGS. 1A, 1B, and 1C show the bronchodilator assay workflow with a […] of FLECS. Each well holds ˜1,200 micro-patterns for sensing force-generation by single cells. […] The two cases represent the positive and negative controls for the assay.
An in vitro model using human airway smooth muscle cells (HASM) from both asthmatic patients and “normal” non-asthmatic humans was stimulated to contract with bradykinin.
The assay investigated bronchodilatation properties of bitter taste agonists, individually and in combination, administered to primary human smooth muscle (HASM) cells after inducing contraction with asthmatic agent bradykinin. HASM cells were obtained from asthmatic patients and “normal” or non-asthmatic patients. Each of 4 primary HASM cell lines (2 from healthy donors; 2 from asthmatic donors) were seeded on FLECSplates and were stimulated to contract via exposure to bradykinin (BK) or carbachol. […] Accordingly, at 15 minutes following exposure to BK, the cells were treated with a denatonium salt or 3-CQL for Example 1, or combinations thereof, as well as positive controls and negative controls. The cells were imaged at 5 minute intervals beginning with a baseline reading, out to 45 minutes. The measurement was attenuation of population wide BK-induced contractility by treatment of a test compound (or combination) relative to controls.
Each well holds ˜1,200 micro-patterns for sensing force-generation by single cells. […] The two cases represent the positive and negative controls for the assay.

TAS2R subtypes = conditions: cited from earlier work

Structure (SMILES) | relaxation of stimulated cells [1] | effect on contraction relative to control (FIG. 2) [1] | number of TAS2R subtypes activated (TAS2R subtypes) | potency of formoterol alone (FIG. 2) ([1]; formoterol 1 μM, concentration reduced 50×)
CC[N+](CC)(CC(=O)Nc1c(C)cccc1C)Cc1ccccc1 [DS, denatonium saccharide] | did relax | – | – | –
CC[N+](CC)(CC(=O)Nc1c(C)cccc1C)Cc1ccccc1 [DB, phenylmethyl-[2-[(2,6-dimethylphenyl)amino]-2-oxoethyl]-diethylammonium benzoate] | – | relaxing effect | 8 | –
O=C(/C=C/c1ccc(O)c(O)c1)O[C@@H]1C[C@](O)(C(=O)O)C[C@@H](O)[C@H]1O [3-CQL, 3-caffeoylquinic acid] | did not relax | increase contraction relative to control | – | –
COc1ccc(CC(C)NCC(O)c2ccc(O)c(NC=O)c2)cc1 (stereo not drawn) [formoterol, Formoterol] | – | – | – | not as potent as previous experiments

Source: patent US12201593B2, “Oral pharmaceutical formulations of bitter compounds for asthma” (Aardvark Therapeutics Inc., priority 2018, dated 2025)
